# Test: Relaxivity measurements at 1.4 T
# Type: physicochemical
# Details: 1.41 T (60 MHz), 37°C, normalized to Mn
# Protocol: T1 and T2 relaxation time were measured at 60 MHz (1.41 T) and 37°C using a Bruker mq60 minispec contrast agent analyzer. Manganese containing chelates were dissolved in different media at and each relaxivity measurement was performed using three different Mn concentrations. Measurement of r1 and r2 relaxivities were performed using concentrations of 0, 0.25, 0.5 and 1mM Mn in water and human plasma containing heparin as anticoagulant. The relaxivities ri (where i=1, 2) were calculated based on the measured relaxation rates Ri in water and plasma: ri = (Ri−Ri(0))/CMn [formula] where Ri(0) represent the relaxation rate of the respective solvent and CMn the concentration of the compound normalized to Manganese. The Manganese concentrations of the investigated solutions were verified by Inductively Coupled Plasma Mass Spectrometry (ICP-MS Agilent 7500a, Waldbronn, Germany). Table 1: Relaxivities of investigated compound in water and human plasma at 1.41 T. All values are measured at 37°C and normalized to Mn and given in L mmol-1 s-1.
smiles,measurement,setting,value
"O=C(CCC(C(=O)[O-])N1CCOCCN(C(CCC(=O)NC[C@H](O)[C@@H](O)[C@H](O)[C@H](O)CO)C(=O)[O-])Cc2cccc(n2)C1)NC[C@H](O)[C@@H](O)[C@H](O)[C@H](O)CO.[Mn+2] (stereo partly drawn) [Example 2, manganese(^2+) 2-[9-(1-carboxylato-4-oxo-4-{[(2S,3R,4R,5R)-2,3,4,5,6-pentahydroxyhexyl]amino}butyl)-6-oxa-3,9,15-triazabicyclo[9.3.1]pentadeca-1(15),11,13-trien-3-yl]-5-oxo-5-{[(2S,3R,4R,5R)-2,3,4,5,6-pentahydroxyhexyl]amino}pentanoate]",r1,human plasma (heparin as anticoagulant),6.4 L mM^-1s^-1
same,r1,water,5.0 L mM^-1s^-1

# Source: patent EP4464708A1, “NEW CONTRAST AGENTS FOR USE IN DIAGNOSTIC IMAGING” (Bayer Aktiengesellschaft, priority 2023, dated 2024)
